Assay results from ChEMBL document CHEMBL3576842, “Selenium-containing chrysin and quercetin derivatives: attractive scaffolds for cancer therapy” (J Med Chem, 2015).

Key:
HEK293 [1] = assay: Selectivity index, ratio of IC50 for HEK293 cells to IC50 for human A375 cells; assay type: functional
C13 [2] = assay: Resistance factor, ratio of IC50 for cisplatin-resistant human C13 cells to IC50 for human 2008 cells; assay type: functional
HEK293 [3] = assay: Selectivity index, ratio of IC50 for HEK293 cells to IC50 for cisplatin-resistant human A431 cells; assay type: functional
NCI/ADR-RES [4] = assay: Resistance factor, ratio of IC50 for human MCF7/ADR cells to IC50 for human MCF7 cells; assay type: functional
HCT-15 = assay: Cytotoxicity against human HCT15 cells assessed as cell growth inhibition after 72 hrs by MTT assay; assay type: functional, cell-based; settings: HCT-15, 72 h
HEK293 [5] = assay: Selectivity index, ratio of IC50 for HEK293 cells to IC50 for human A431 cells; assay type: functional
HEK293 [6] = assay: Cytotoxicity against HEK293 cells assessed as cell growth inhibition after 72 hrs by MTT assay; assay type: cell-based; settings: Homo sapiens, HEK293, 72 h
[7] = Cytotoxicity against human C13 cells assessed as cell growth inhibition after 72 hrs by MTT assay; assay type: functional, cell-based; settings: C13, 72 h
HEK293 [8] = assay: Selectivity index, ratio of IC50 for HEK293 cells to IC50 for human 2008 cells; assay type: functional
C13 [9] = assay: Selectivity index, ratio of IC50 for HEK293 cells to IC50 for human C13 cells; assay type: functional
A-431 [10] = assay: Cytotoxicity against cisplatin-resistant human A431 cells assessed as cell growth inhibition after 72 hrs by MTT assay; assay type: functional, cell-based; settings: A-431, 72 h
HEK293 [11] = assay: Selectivity index, ratio of IC50 for HEK293 cells to IC50 for human HCT15 cells; assay type: functional
HEK293 [12] = assay: Selectivity index, ratio of IC50 for HEK293 cells to IC50 for human BxPC3 cells; assay type: functional
[13] = Cytotoxicity against human MCF7/ADR cells assessed as cell growth inhibition after 72 hrs by MTT assay; assay type: functional, cell-based; settings: NCI/ADR-RES
A-431 [14] = assay: Cytotoxicity against human A431 cells assessed as cell growth inhibition after 72 hrs by MTT assay; assay type: functional, cell-based; settings: A-431, 72 h
2008 = assay: Cytotoxicity against human 2008 cells assessed as cell growth inhibition after 72 hrs by MTT assay; assay type: functional, cell-based; settings: Homo sapiens, 2008, 72 h
NCI/ADR-RES [15] = assay: Selectivity index, ratio of IC50 for HEK293 cells to IC50 for human MCF7/ADR cells; assay type: functional
HEK293 [16] = assay: Selectivity index, ratio of IC50 for HEK293 cells to IC50 for human MCF7 cells; assay type: functional
MCF7 = assay: Cytotoxicity against human MCF7 cells assessed as cell growth inhibition after 72 hrs by MTT assay; assay type: functional, cell-based; settings: MCF7, 72 h
[17] = Cytotoxicity against human BxPC3 cells assessed as cell growth inhibition after 72 hrs by MTT assay; assay type: functional, cell-based; settings: BXPC-3, 72 h
A-431 [18] = assay: Resistance factor, ratio of IC50 for cisplatin-resistant human A431 cells to IC50 for human A431 cells; assay type: functional
A-375 = assay: Cytotoxicity against human A375 cells assessed as cell growth inhibition after 72 hrs by MTT assay; assay type: functional, cell-based; settings: A-375, 72 h
[19] = Antioxidant activity assessed as DPPH radical scavenging activity after 1 hr; assay type: physicochemical
[20] = Antioxidant activity assessed as DPPH radical scavenging activity at 1 mM after 1 hr; assay type: physicochemical; settings: 1000 µM

| SMILES | Ratio IC50 (HEK293 [1]) | Ratio IC50 (C13 [2]) | Ratio IC50 (HEK293 [3]) | Ratio IC50 (NCI/ADR-RES [4]) | IC50 (HCT-15) [µM] | Ratio IC50 (HEK293 [5]) | IC50 (HEK293 [6]) [µM] | IC50 [7] [µM] | Ratio IC50 (HEK293 [8]) | Ratio IC50 (C13 [9]) | IC50 (A-431 [10]) [µM] | Ratio IC50 (HEK293 [11]) | Ratio IC50 (HEK293 [12]) | IC50 [13] [µM] | IC50 (A-431 [14]) [µM] | IC50 2008 [µM] | Ratio IC50 (NCI/ADR-RES [15]) | Ratio IC50 (HEK293 [16]) | IC50 (MCF7) [µM] | IC50 [17] [µM] | further results |
| --- | --- | --- | --- | --- | --- | --- | --- | --- | --- | --- | --- | --- | --- | --- | --- | --- | --- | --- | --- | --- | --- |
| O=c1cc(-c2ccccc2)oc2cc(O)cc(O)c12 [CHRYSIN] | 1.9 | 1.7 | 1.9 | 1 | 54.4 | 1.9 | 77.5 | 49.7 | 1.9 | 1.9 | 60.1 | 1.9 | 1.9 | 51 | 29.4 | 28.6 | 1.9 | 1.9 | 50.3 | 54.3 | Ratio IC50 (A-431 [18]): 2; IC50 (A-375): 33.2 µM |
| O=C1O[C@H]([C@@H](O)CO)C(O)=C1O [ASCORBIC ACID] |  |  |  |  |  |  |  |  |  |  |  |  |  |  |  |  |  |  |  |  | IC50 [19]: 6 µM |
| COc1cc(O)c2c(=S)c(OC)c(-c3ccc(OC)c(OC)c3)oc2c1 |  |  |  |  |  |  |  |  |  |  |  |  |  |  |  |  |  |  |  |  | Activity [20]: 18.3% |
| Oc1cc(O)c2c(=S)cc(-c3ccccc3)oc2c1 | 1.2 | 1.4 | 1.2 | 1 | 56.6 | 1.2 | 68.3 | 58.5 | 1.2 | 1.2 | 98.4 | 1.2 | 1.2 | 72.3 | 66.3 | 41.1 | 1.2 | 1.2 | 70.4 | 64.4 | IC50 [19]: 4600 µM; Ratio IC50 (A-431 [18]): 1.6; IC50 (A-375): 36.5 µM |
